Laboratory results taken from patent US10111881B2 (priority 2016, dated 2018).
Where two headings read alike, the source gives them in different places.

Columns and labels:
EBOV [1] = assay: microbe, parasite or virus in culture; format: cell-based, Zaire Ebolavirus (Mayinga strain); conditions: read-out: Activity in macrophages IC50
HeLa cells [2] = format: cell-based, human; conditions: 50 μM
EEA1-positive vesicles = format: cell-based, human
EBOV [3] = assay: organism not typed; format: cell-based, Zaire Ebolavirus (Mayinga strain)
TDP1 = TDP1 (Homo sapiens, UniProt Q9NUW8); conditions: PubChem data; cited from earlier work
NPC1 C-loop = biological target: T1, NPC1 C-loop (Homo sapiens, UniProt O15118); assay: NPC1 C-loop binding
T1 construct: C-loop
T1 sequence (O15118 372-620 limits assumed): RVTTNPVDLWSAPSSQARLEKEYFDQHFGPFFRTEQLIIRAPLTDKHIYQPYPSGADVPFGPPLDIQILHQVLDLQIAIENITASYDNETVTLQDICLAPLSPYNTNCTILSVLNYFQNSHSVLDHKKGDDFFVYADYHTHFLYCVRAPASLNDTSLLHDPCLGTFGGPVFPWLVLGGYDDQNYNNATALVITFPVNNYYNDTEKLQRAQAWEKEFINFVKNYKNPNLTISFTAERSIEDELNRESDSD

MARV = assay: microbe, parasite or virus in culture; format: cell-based, Marburgvirus (Musoke strain)
[4] = tested on: Baby hamster kidney fibroblasts (BHK) cells; assay: Acridine orange assay for acidification blockers; format: cell-based
EBOV [5] = format: cell-based, Zaire Ebolavirus (Mayinga strain)
Cathepsin = Cathepsin cleavage of GP
LAMP1-positive vesicles = format: cell-based, human
HeLa cells [6] = format: cell-based, human
[7] = biological target: T2, acetylcholine receptor M1 (Homo sapiens, UniProt P11229); conditions: PubChem data; cited from earlier work
T2 sequence (P11229 1-460): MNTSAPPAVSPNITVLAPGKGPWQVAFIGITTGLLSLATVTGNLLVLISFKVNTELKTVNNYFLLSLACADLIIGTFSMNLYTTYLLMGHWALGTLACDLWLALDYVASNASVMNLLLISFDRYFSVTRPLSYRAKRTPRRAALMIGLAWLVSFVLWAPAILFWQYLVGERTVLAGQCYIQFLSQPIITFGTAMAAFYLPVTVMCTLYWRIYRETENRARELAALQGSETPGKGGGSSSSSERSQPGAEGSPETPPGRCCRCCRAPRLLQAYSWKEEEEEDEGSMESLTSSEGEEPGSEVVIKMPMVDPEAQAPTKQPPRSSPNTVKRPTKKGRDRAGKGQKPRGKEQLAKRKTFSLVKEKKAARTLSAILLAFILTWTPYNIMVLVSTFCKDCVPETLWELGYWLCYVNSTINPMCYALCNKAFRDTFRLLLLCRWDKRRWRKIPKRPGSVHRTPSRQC

TDP1, sequence (Q9NUW8 whole entry, species assumed): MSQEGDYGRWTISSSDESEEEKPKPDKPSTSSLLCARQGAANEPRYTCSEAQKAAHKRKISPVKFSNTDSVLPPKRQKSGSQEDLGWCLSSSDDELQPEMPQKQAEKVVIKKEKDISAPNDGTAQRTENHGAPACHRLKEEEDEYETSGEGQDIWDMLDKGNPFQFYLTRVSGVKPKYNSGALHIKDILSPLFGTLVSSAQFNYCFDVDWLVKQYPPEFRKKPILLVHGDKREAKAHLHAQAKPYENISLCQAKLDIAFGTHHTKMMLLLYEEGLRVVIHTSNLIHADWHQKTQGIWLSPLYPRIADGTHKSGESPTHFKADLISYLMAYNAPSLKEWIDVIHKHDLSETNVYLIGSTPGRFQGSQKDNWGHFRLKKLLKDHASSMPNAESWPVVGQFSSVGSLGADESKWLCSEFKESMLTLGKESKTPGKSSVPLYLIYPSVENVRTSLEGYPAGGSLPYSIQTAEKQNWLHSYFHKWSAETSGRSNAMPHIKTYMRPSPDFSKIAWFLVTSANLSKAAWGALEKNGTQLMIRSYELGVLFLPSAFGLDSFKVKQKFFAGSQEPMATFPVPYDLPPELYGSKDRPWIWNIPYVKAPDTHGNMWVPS

With `CC(C)N1CCN(C(=O)c2ccc(OC3CCN(CCc4ccccc4)CC3)cc2)CC1` [MLS001101371] the IC50 (EBOV [1]) was 24.6 µM, the “Dextran Uptake” value (HeLa cells [2]) was 0 and the “Effect on EEA1” value (EEA1-positive vesicles) was 0. The “VLP colocalization with EEA1” value (EEA1-positive vesicles) was “colocalized with EEA1 positive vesicles normally”, the “Curve Class (EBOV)” value (EBOV [3]) was 1.3 and the “EBOV (curve class)” value (EBOV [3]) was 1.3. For the same molecule, the IC50 (EBOV [3]; read-out: EBOV HeLa IC50) was 12.9 µM, the IC50 (EBOV [3]; read-out: IC-50 (EBOV)) was 12.9 µM and the “antagonist of DNA repair gene TDP1” value (TDP1) was “identified”. For the same molecule, the “NPC1 C-loop binding” value (NPC1 C-loop) was 0, the “Curve class (MARV)” value (MARV) was 1.3 and the “MARV (Curve class)” value (MARV) was 1.3. The IC50 (MARV; read-out: IC-50 (MARV)) was 13 µM, the IC50 (MARV; read-out: MARV HeLa IC50) was 13 µM and the “Acidification Block” value [4] was “+”. The Surface interaction (EBOV [5]) was 0, the Uninfected cell number (EBOV [5]) was 0 and the Cathepsin clevage (Cathepsin) was 0. For the same molecule, the “Effect on LAMP1” value (LAMP1-positive vesicles) was “−”, the “reduction of number of VLPs present in LAMP1-positive vesicles” value (LAMP1-positive vesicles) was 41% and the “effect on transferrin uptake” value (HeLa cells [6]) was “do not inhibit transferrin uptake”. For the same molecule, the Transferrin uptake (HeLa cells [6]; 50 μM) was 0 and the “antagonist of acetylcholine receptor M1” value [7] was “identified”.
